The text below walks through data of ChEMBL document CHEMBL1122167, “Syntheses and adrenergic agonist properties of ring-fluorinated isoproterenols” (J Med Chem, 1982).

Test [1] addresses Adrenergic receptor beta (Homo sapiens, UniProt P08588+P07550+P13945).
Description: Evaluated for Beta adrenergic receptor agonistic property in isolated guinea pig atria
Test [2] deals with Adrenergic receptor alpha.
In test [3] the target is Adrenergic receptor beta (Rattus norvegicus, UniProt P18090+P10608+P26255).

Usually EC50 stands for the concentration needed to bring the measured effect to its halfway point. The IC50 is the point on the concentration scale where inhibition reaches its midpoint. Low values mean greater potency in that assay, high ones weaker potency in that assay. `CC(C)NCC(O)c1cc(O)c(O)c(F)c1` (stereo not given): the EC50 on Adrenergic receptor beta [1] was 0.02 µM. Also, the values for the IC50 (in test [2]; on Adrenergic receptor beta [3]) were 55 µM and 0.6 µM, respectively.

With `CC(C)NCC(O)c1cc(O)c(O)cc1F` (stereo not given), the EC50 at Adrenergic receptor beta [1] is 30 µM. Further, the IC50 in test [2] came to 80 µM; on Adrenergic receptor beta [3], 5.5 µM.

In turn, `CC(C)NCC(O)c1ccc(O)c(O)c1F` (stereo not given) gave an EC50 on Adrenergic receptor beta [1] of 0.01 µM. The IC50 in test [2] turned out to be 59 µM; at Adrenergic receptor beta [3] it was 0.5 µM.

In test [2], `CC(C)NCC(O)c1ccc(O)c(O)c1` (racemic) [ISOPROTERENOL] showed an IC50 of more than 100 µM.
